Assay results as given in publication PMC7826463, “Pamiparib dose escalation in Chinese patients with non‐mucinous high‐grade ovarian cancer or advanced triple‐negative breast cancer” (Cancer Medicine, 2020).
Values joined by “and” are separate entries in the source; they are usually repeats but may differ in a detail not shown here. Identical values can stand only once. “Also recorded” adds a separate entry of the source. Like-named read-outs stand apart in the source and are kept apart here.

Columns and labels:
[1] = Plasma pharmacokinetics of pamiparib, single dose and steady state, non-compartmental; assay type: in vivo, human; details: for CL/F / Cmax / AUC(0-t) / AUC(0-inf): geometric mean (geometric CV%); for Cmax / AUC(0-t) / half-life / Tmax / AUC(0-inf): human, plasma; for half-life: geometric mean (range)
Description: (§1) Secondary objectives were assessment of PK parameters and antitumor activity. Blood samples for the PK analysis were collected at Cycle 1 on Days 1, 2, and 3. Pharmacokinetic sampling was performed at Cycle 1 on Day 1 (predose and at 0.5, 1, 2, 4, 6, 9, and 12 hours postdose), Day 2, Day 3, and Day 10 (predose and at 0.5, 1, 2, 4, 6, 9, and 12 hours postdose); then at Cycles 2 and 3 on Day 1 (predose and at 2 hours postdose). […] Tumor assessments were performed by the investigators at screening, every 6 weeks after the first dose of pamiparib in the 1st year, and every 12 weeks thereafter until progression, per RECIST v1.1. Patients completed the study at the time of their safety follow‐up visit; therefore, radiological assessment of disease progression was not performed after the safety follow‐up visit. Approximately 14 to 18 evaluable patients were expected to enroll in the phase 1 part of the study. The safety population included all patients who received ≥1 dose of pamiparib. The PK population included all patients for whom valid pamiparib PK parameters could be estimated. Antitumor activity per RECIST v1.1 was assessed in all evaluable patients. […] The population evaluable for CA‐125 response included patients in the safety population with baseline CA‐125 ≥2 x upper limit of normal. Descriptive statistics were used to summarize all study data. Continuous variables included the number of non‐missing observations, mean, standard deviation, median, minimum, and maximum. Categorical variables were summarized by their frequency and percentage. Progression‐free survival was estimated using the Kaplan–Meier method and the corresponding 95% confidence interval (CI) was constructed using Greenwood's formula. Standard PK parameters (i.e., area under the plasma concentration‐time curve [AUC] from time of drug administration; maximum plasma concentration [Cmax]; time to Cmax; elimination half‐life [t1/2]; apparent clearance; and apparent volume of distribution during terminal phase) were estimated and derived using standard non‐compartmental methods.

[2] = tested on: non-mucinous high-grade ovarian cancer (HGOC); experiment: Antitumor activity per RECIST v1.1 (best overall response, ORR, CBR, PFS) in patients with HGOC; assay type: in vivo, human
Description: as §1

[3] = HGOC (n = 8), RECIST efficacy-evaluable
[4] = HGOC (n = 8), RECIST efficacy-evaluable, 20-60 mg BID

Q: For `C[C@]12CCCN1CC1=NNC(=O)c3cc(F)cc4[nH]c2c1c34` [pamiparib, Pamiparib], which “Accumulation ratio, AUC0-12” value ([1]; 20 mg BID, n 4) is on record?
A: 2.05

Q: What about the “Accumulation ratio, Cmax” value ([1]; 20 mg BID, n 4) of the same compound?
A: 1.78

Q: And the “Accumulation ratio, AUC0-12” value ([1]; 40 mg BID, n 4)?
A: 3.95

Q: And the “Accumulation ratio, Cmax” value ([1]; 40 mg BID, n 4)?
A: 3.19

Q: What about the “Accumulation ratio, AUC0-12” value ([1]; 60 mg BID, n 5) of the same compound?
A: 3.4 and 3.36

Q: What about the “Accumulation ratio, Cmax” value ([1]; 60 mg BID, n 5) of the same compound?
A: 2.6 and 2.62

Q: What about the CL/F ([1]; Single dose, 20 mg BID cohort, N 4) of the same compound?
A: 1.95 (44) L/hr

Q: What about the CL/F ([1]; Single dose, 40 mg BID cohort, N 4) of the same compound?
A: 2.07 (61) L/hr

Q: And the CL/F ([1]; Single dose, 60 mg BID cohort, N 7)?
A: 2.19 (79) L/hr

Q: What about the “Dose proportionality of plasma exposure (AUC and Cmax)” value ([1]; between 20 mg and 60 mg BID, after a single dose) of the same compound?
A: increased near proportionally; also recorded: near dose‐proportional

Q: And the Cmax ([1]; oral, 20 mg, Single dose, 20 mg BID cohort, N 4, plasma)?
A: 718 ng/mL

Q: What about the AUC(0-t) ([1]; oral, 20 mg, Single dose, 20 mg BID cohort, N 4, read-out: AUC0-9) of the same compound?
A: 4130 ng·h/mL

Q: And the AUC(0-t) ([1]; oral, 20 mg, Single dose, 20 mg BID cohort, N 4, read-out: AUC0-12)?
A: 5030 ng·h/mL

Q: What about the half-life ([1]; oral, 20 mg, Single dose, 20 mg BID cohort, N 4) of the same compound?
A: 12.1 h

Q: What about the Tmax ([1]; oral, 20 mg, Single dose, 20 mg BID cohort, N 4, median (range), read-out: Tmax) of the same compound?
A: 1.01 h

Q: And the Cmax ([1]; oral, 20 mg, Steady state (Cycle 1 Day 10), 20 mg BID, N 4)?
A: 1280 ng/mL

Q: What about the AUC(0-t) ([1]; oral, 20 mg, Steady state (Cycle 1 Day 10), 20 mg BID, N 4, read-out: AUC0-9) of the same compound?
A: 8360 ng·h/mL

Q: And the AUC(0-t) ([1]; oral, 20 mg, Steady state (Cycle 1 Day 10), 20 mg BID, N 4, read-out: AUC0-12)?
A: 10300 ng·h/mL

Q: And the Tmax ([1]; oral, 20 mg, Steady state (Cycle 1 Day 10), 20 mg BID, N 4, median (range), read-out: Tmax)?
A: 1.04 h

Q: What about the Cmax ([1]; oral, 40 mg, Single dose, 40 mg BID cohort, N 4, plasma) of the same compound?
A: 1630 ng/mL

Q: What about the AUC(0-t) ([1]; oral, 40 mg, Single dose, 40 mg BID cohort, N 4, read-out: AUC0-9) of the same compound?
A: 8560 ng·h/mL

Q: And the AUC(0-t) ([1]; oral, 40 mg, Single dose, 40 mg BID cohort, N 4, read-out: AUC0-12)?
A: 10400 ng·h/mL

Q: What about the half-life ([1]; oral, 40 mg, Single dose, 40 mg BID cohort, N 4) of the same compound?
A: 11.8 h

Q: And the Tmax ([1]; oral, 40 mg, Single dose, 40 mg BID cohort, N 4, median (range), read-out: Tmax)?
A: 0.98 h

Q: And the Cmax ([1]; oral, 40 mg, Steady state (Cycle 1 Day 10), 40 mg BID, N 4)?
A: 5210 ng/mL

Q: And the AUC(0-t) ([1]; oral, 40 mg, Steady state (Cycle 1 Day 10), 40 mg BID, N 4, read-out: AUC0-9)?
A: 32500 ng·h/mL

Q: And the AUC(0-t) ([1]; oral, 40 mg, Steady state (Cycle 1 Day 10), 40 mg BID, N 4, read-out: AUC0-12)?
A: 40900 ng·h/mL

Q: And the Tmax ([1]; oral, 40 mg, Steady state (Cycle 1 Day 10), 40 mg BID, N 4, median (range), read-out: Tmax)?
A: 1.1 h

Q: And the Cmax ([1]; oral, 60 mg, Single dose, 60 mg BID cohort, N 7, plasma)?
A: 2300 ng/mL

Q: What about the AUC(0-t) ([1]; oral, 60 mg, Single dose, 60 mg BID cohort, N 7, read-out: AUC0-9) of the same compound?
A: 11900 ng·h/mL

Q: What about the AUC(0-t) ([1]; oral, 60 mg, Single dose, 60 mg BID cohort, N 7, read-out: AUC0-12) of the same compound?
A: 14800 ng·h/mL

Q: What about the half-life ([1]; oral, 60 mg, Single dose, 60 mg BID cohort, N 7) of the same compound?
A: ~14 h

Q: What about the Tmax ([1]; oral, 60 mg, Single dose, 60 mg BID cohort, N 7, median (range), read-out: Tmax) of the same compound?
A: 1.13 h

Q: What about the Cmax ([1]; oral, 60 mg, Steady state (Cycle 1 Day 10), 60 mg BID, N 5) of the same compound?
A: 5860 ng/mL

Q: And the AUC(0-t) ([1]; oral, 60 mg, Steady state (Cycle 1 Day 10), 60 mg BID, N 5, read-out: AUC0-9)?
A: 38100 ng·h/mL

Q: What about the AUC(0-t) ([1]; oral, 60 mg, Steady state (Cycle 1 Day 10), 60 mg BID, N 5, read-out: AUC0-12) of the same compound?
A: 47100 ng·h/mL

Q: And the Tmax ([1]; oral, 60 mg, Steady state (Cycle 1 Day 10), 60 mg BID, N 5, median (range), read-out: Tmax)?
A: 1.13 h

Q: What about the AUC(0-inf) ([1]; oral, Single dose, 20 mg BID cohort, N 4) of the same compound?
A: 10200 ng·h/mL

Q: And the AUC(0-inf) ([1]; oral, Single dose, 40 mg BID cohort, N 4)?
A: 19300 ng·h/mL

Q: What about the AUC(0-inf) ([1]; oral, Single dose, 60 mg BID cohort, N 7) of the same compound?
A: 27500 ng·h/mL

Q: What about the Tmax ([1]; po, 60 mg, oral administration, RP2D of 60 mg BID, read-out: median Tmax) of the same compound?
A: ~1 h

Q: What about the “Plasma exposure after a single dose compared with FIH study” value ([1]; single-dose administration) of the same compound?
A: similar

Q: What about the “Steady-state exposure compared with FIH study” value ([1]; steady state) of the same compound?
A: slightly higher

Q: What about the “Clinical benefit rate (CR+PR+SD ≥24 weeks)” value [2, 3] of the same compound?
A: 62.5 % (95% CI) and 62.5 (24.5‐91.5) % (95% CI)

Q: And the “Disease control rate (CR+PR+SD)” value [2, 3]?
A: 100 % (95% CI) and 100.0 (63.1‐100) % (95% CI)

Q: What about the “Objective response rate (CR+PR)” value [2, 3] of the same compound?
A: 25.0 (3.2‐65.1) % (95% CI)

Q: And the “Best overall response: Complete response” value [2, 4]?
A: 0 n (%)

Q: What about the “Best overall response: Progressive disease” value [2, 4] of the same compound?
A: 0 n (%)

Q: And the “Event-free rate at 3 months (95% CI)” value ([2]; HGOC (n=9), Kaplan-Meier)?
A: 85.7 (33.41–97.86) %

Q: What about the “Event-free rate at 6 months (95% CI)” value ([2]; HGOC (n=9), Kaplan-Meier) of the same compound?
A: 68.6 (21.28–91.21) %

Q: What about the “Event-free rate at 9 months (95% CI)” value ([2]; HGOC (n=9), Kaplan-Meier) of the same compound?
A: 68.6 (21.28–91.21) %

Q: And the “Median PFS (95% CI)” value ([2]; HGOC (n=9), Kaplan-Meier, NE, not estimable)?
A: NE (2.86–NE)

Q: What about the “PFS Events” value ([2]; HGOC (n=9), safety population) of the same compound?
A: 2 (22.2) n (%)

Q: And the “Confirmed PR, gBRCA WT patients” value ([2]; RECIST-evaluable HGOC (n = 8))?
A: 1 n

Q: And the “Confirmed PR, gBRCA mut patients” value ([2]; RECIST-evaluable HGOC (n = 8))?
A: 1 n

Q: And the “Response duration at data cut-off” value ([2]; one patient with HGOC, 20 mg dose level, PR, treatment ongoing)?
A: 27.7 months
